From US11267826B2, “Penicillin-binding protein inhibitors” (priority 2017, dated 2022) come the findings set out here.

Experiment [1] addresses T1, E. coli PBP2 (Escherichia coli, UniProt P0AD65).
T1 construct: 100 μg's of total membrane protein extracts containing PBPs; endogenous in cells; host or cells: Escherichia coli K12, membrane protein fraction
Description: Bocillin FL competition binding assay, PBP2. Details: species or system Escherichia coli K12. The conditions noted are these: 15 min pre-incubation. The protocol: (§1) To determine the ability of test compounds to bind Penicillin Binding Proteins (PBPs), a competition binding assay using Bocillin FL (fluorescent derivative of penicillin V) was adapted from the classical method used to assess PBP potency of beta-lactams.
(§2) Penicillin binding proteins were isolated from Escherichia coli K12 by growth of Escherichia coli K12 from a single colony in 4 L of Luria-Bertani (LB) broth at 35° C. and 250 rpm to an OD600 nm of 0.5. The cells were harvested by centrifugation at 7,000×g for 10 min. at 4° C. Cells were resuspended and washed in 50 mM potassium phosphate pH 7.5. The cells were re-suspended in sonication buffer [50 mM Tris-HCl pH 7.5, 1 mM MgCl2, 1 mM beta-mercaptoethanol, and 5 μg/mL DNAse I] and sonicated by 4 passes of 30 seconds at 45 W on ice. The sample was clarified by centrifugation at 3,000×g to remove cell debris and unbroken cells and supernatant containing the membrane proteins was retained. The membrane proteins including the PBPs were further purified from soluble constituents by an ultracentrifugation step at 100,000×g for 30 min. at 4° C. The membrane proteins are washed twice with 10 mM sodium phosphate pH 7, resuspended in a volume of 5 mL, quantitated by BCA assay, adjusted to […] and frozen at −80° C. until use.
(§3) The adapted Bocillin FL competition binding method described herein incorporates a 15 min. pre-incubation of test compound with isolated PBPs to attempt to balance the difference in mechanism of inhibition between beta-lactams (largely irreversible covalent bond to active site Serine) and the boron-containing PBP inhibitor test compounds (reversible covalent bond to active site Serine). Briefly, 50 μL reactions consisted of 100 μg's of total membrane protein extracts containing PBPs incubated with a dilution series of test compound ranging from 0.005 μg/mL to 2,480 μg/mL in 10 mM sodium phosphate pH7 containing 350 mM NaCl. Thirty minute reactions at 35° C. were initiated by addition of […] Bocillin FL, quenched by addition of SDS-PAGE loading buffer containing sodium dodecyl sulfate (SDS) and heated for 15 minutes at 95° C. to denature proteins in preparation for SDS-polyacrylamide gel electrophoresis. The Bocillin FL labeled PBPs are then separated by SDS-PAGE in Novex NuPage 10% Bis-Tris pre-cast gels (Invitrogen). The SDS-PAGE gel, post-electrophoresis, is then washed in water to remove excess SDS for 10 minutes at room temperature and placed on the scanning bed of a GE Healthcare/Amersham Biosciences Storm 860 fluorescence scanner. The excitation wavelength is in the blue spectrum at 450 nm and the emission at 520 nm is captured by the instrument. Effective PBP inhibitors are detected by a reduction in Bocillin FL labeling of the particular PBP over the dose range of test compound in a dose-responsive manner. High molecular weight PBP 1a/1b are not resolved by these gels, thus we report HMW PBP binding results in μg/mL for PBPs 1a/1b combined as well as for PBP2 and PBP3.
(§4) Representative results are shown in Table 2, where A represents a potency of >1000 μg/mL, B represents a potency between 64 and 1000 μg/mL inclusive, and C represents a potency of <64 μg/mL. NT=Not Tested.

For experiment [2], the system named is E. coli K12 PBP1a/b. Description: Bocillin FL competition binding assay, PBP1a/1b combined. Details: species or system Escherichia coli K12. The conditions noted are these: 15 min pre-incubation, PBP 1a/1b combined. The protocol:
as §1, §2, §3, §4

For experiment [3], the target named is T2, E. coli PBP3 (Escherichia coli, UniProt P0AD68).
T2 construct: 100 μg's of total membrane protein extracts containing PBPs; endogenous in cells; host or cells: Escherichia coli K12, membrane protein fraction
T2 sequence (P0AD68 1-577): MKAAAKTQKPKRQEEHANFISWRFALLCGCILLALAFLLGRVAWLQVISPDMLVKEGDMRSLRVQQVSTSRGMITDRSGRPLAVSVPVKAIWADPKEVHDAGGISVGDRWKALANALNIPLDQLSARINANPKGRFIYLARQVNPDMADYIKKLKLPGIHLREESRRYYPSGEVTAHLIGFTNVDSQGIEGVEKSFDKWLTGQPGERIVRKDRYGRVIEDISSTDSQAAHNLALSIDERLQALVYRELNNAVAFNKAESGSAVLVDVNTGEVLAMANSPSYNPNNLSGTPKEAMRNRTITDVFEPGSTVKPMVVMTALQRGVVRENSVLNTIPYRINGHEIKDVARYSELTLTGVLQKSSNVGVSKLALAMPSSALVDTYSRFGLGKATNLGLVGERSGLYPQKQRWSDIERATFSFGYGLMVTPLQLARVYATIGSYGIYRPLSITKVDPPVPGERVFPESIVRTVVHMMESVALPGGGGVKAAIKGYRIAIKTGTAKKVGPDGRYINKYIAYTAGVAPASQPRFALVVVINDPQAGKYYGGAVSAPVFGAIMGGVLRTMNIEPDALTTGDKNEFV
Description: Bocillin FL competition binding assay, PBP3. Details: species or system Escherichia coli K12. The conditions noted are these: 15 min pre-incubation. Here is the method:
as §1, §2, §3, §4

The test system of experiment [4] is hyper-permeable E. coli 901C. The experiment can be described thus: Broth microdilution MIC assay, hyper-permeable E. coli. The format is cell-based. The conditions noted are these: Escherichia coli, read-out: E. coli 901C MIC. A digest of the protocol: (§5)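 Per CLSI: log-phase cultures (3-5 h, 37° C) seeded at 5×10^5 CFU/mL into cation-supplemented Mueller-Hinton broth containing 2-fold compound dilutions. After 16-20 h at 37° C, MIC taken visually as lowest growth-free well, for S. aureus ATCC 29213 and E. coli 901C.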

Experiment [5] concerns S. aureus ATCC 29213. Description: Broth microdilution MIC assay, S. aureus. The format is cell-based. The conditions noted are these: Staphylococcus aureus, ATCC29213; broth microdilution, 16-20 hours at 37° C.; read-out: S. aureus 29213 MIC. A digest of the protocol: as §5

Where only a bound is given, the exact number is not on record here.

T1 sequence (P0AD65 whole entry): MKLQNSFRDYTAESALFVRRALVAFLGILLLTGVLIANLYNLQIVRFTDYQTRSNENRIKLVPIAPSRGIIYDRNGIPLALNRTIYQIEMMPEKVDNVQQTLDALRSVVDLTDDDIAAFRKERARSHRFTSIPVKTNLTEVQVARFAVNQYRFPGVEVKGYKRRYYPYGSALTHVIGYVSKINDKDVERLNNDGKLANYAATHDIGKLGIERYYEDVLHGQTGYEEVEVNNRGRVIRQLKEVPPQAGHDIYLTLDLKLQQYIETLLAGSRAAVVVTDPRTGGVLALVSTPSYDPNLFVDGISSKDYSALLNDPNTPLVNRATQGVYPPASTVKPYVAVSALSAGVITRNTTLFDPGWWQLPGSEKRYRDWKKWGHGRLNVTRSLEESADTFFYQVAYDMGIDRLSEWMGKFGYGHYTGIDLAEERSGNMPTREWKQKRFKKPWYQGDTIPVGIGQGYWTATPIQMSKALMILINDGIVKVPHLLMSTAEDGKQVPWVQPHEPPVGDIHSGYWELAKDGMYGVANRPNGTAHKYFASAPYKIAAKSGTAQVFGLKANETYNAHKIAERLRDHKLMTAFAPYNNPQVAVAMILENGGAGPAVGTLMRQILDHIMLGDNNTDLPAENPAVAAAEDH

`N#CC1CCC(NC(=O)CO/N=C(\C(=O)N[C@H]2Cc3cccc(C(=O)O)c3OB2O)c2csc(N)n2)CC1` (stereo partly drawn) [Example 63, (R)-3-((Z)-2-(2-aminothiazol-4-yl)-2-((2-(((1s,4S)-4-cyanocyclohexyl)amino)-2-oxoethoxy)imino)acetamido)-2-hydroxy-3,4-dihydro-2H-benzo[e][1,2]oxaborinine-8-carboxylic Acid]: the “E. coli PBP2 Potency” value in experiment [1] was “B (B represents a potency between 64 and 1000 μg/mL inclusive)”. Further, in experiment [2], the “E. coli K12 PBP1a/b Potency” value was “B (B represents a potency between 64 and 1000 μg/mL inclusive)”. The “E. coli PBP3 Potency” value in experiment [3] is reported as “C (C represents a potency of <64 μg/mL)”.

Consider `Nc1nc(/C(=N/OCC(=O)NCCCCCNC(=O)CBr)C(=O)N[C@H]2Cc3cccc(C(=O)O)c3OB2O)cs1` [Example 78, (R,Z)-3-(2-(2-aminothiazol-4-yl)-15-bromo-6,14-dioxo-4-oxa-3,7,13-triazapentadec-2-enamido)-2-hydroxy-3,4-dihydro-2H-benzo[e][1,2]oxaborinine-8-carboxylic Acid], for which the “E. coli PBP2 Potency” value in experiment [1] was “B (B represents a potency between 64 and 1000 μg/mL inclusive)”. Besides, in experiment [4], the MIC is more than 128 µg/mL. For the same molecule, in experiment [2], the “E. coli K12 PBP1a/b Potency” value is “B (B represents a potency between 64 and 1000 μg/mL inclusive)”. Also, the “E. coli PBP3 Potency” value in experiment [3] is “B (B represents a potency between 64 and 1000 μg/mL inclusive)”.

Turning to `Nc1cccc(/C(=N/O)C(=O)N[C@H]2Cc3cccc(C(=O)O)c3OB2O)n1` [Example 16, (R,Z)-3-(2-(6-aminopyridin-2-yl)-2-(hydroxyimino)acetamido)-2-hydroxy-3,4-dihydro-2H-benzo[e][1,2]oxaborinine-8-carboxylic Acid], the MIC was less than 64 µg/mL in experiment [5] and 64 to 128 µg/mL in experiment [4].

For `COc1cc2c(c(C(=O)O)c1)OB(O)[C@@H](NC(=O)/C(=N\OC(C)(C)C(=O)O)c1csc(N)n1)C2` [Example 79, (R,Z)-3-(2-(2-aminothiazol-4-yl)-2-(((2-carboxypropan-2-yl)oxy)imino)acetamido)-2-hydroxy-6-methoxy-3,4-dihydro-2H-benzo[e][1,2]oxaborinine-8-carboxylic Acid], the MIC in experiment [5] is more than 128 µg/mL; in experiment [4] it was less than 64 µg/mL.

Regarding `Nc1nc(/C(=N/O)C(=O)N[C@H]2Cc3ccc(CCC(=O)O)c(C(=O)O)c3OB2O)cs1` [Example 28, (R,Z)-3-(2-(2-aminothiazol-4-yl)-2-(hydroxyimino)acetamido)-7-(2-carboxyethyl)-2-hydroxy-3,4-dihydro-2H-benzo[e][1,2]oxaborinine-8-carboxylic Acid], the MIC in experiment [5] and in experiment [4] was more than 128 µg/mL each time.

For the molecule `Nc1nc(/C(=N/O)C(=O)N[C@H]2Cc3ccc(O)c(C(=O)O)c3OB2O)cs1` [Example 21, (R,Z)-3-(2-(2-aminothiazol-4-yl)-2-(hydroxyimino)acetamido)-2,7-dihydroxy-3,4-dihydro-2H-benzo[e][1,2]oxaborinine-8-carboxylic Acid], the MIC in experiment [5] is 64 to 128 µg/mL; in experiment [4], more than 128 µg/mL.

Take `Nc1nc(/C(=N/OCCCBr)C(=O)N[C@H]2Cc3cccc(C(=O)O)c3OB2O)cs1` [Example 116, (R,Z)-3-(2-(2-aminothiazol-4-yl)-2-((3-bromopropoxy)imino)acetamido)-2-hydroxy-3,4-dihydro-2H-benzo[e][1,2]oxaborinine-8-carboxylic Acid]: the MIC in experiment [5] and in experiment [4] was more than 128 µg/mL in each case.

On to `O=C(N[C@H]1Cc2cccc(C(=O)O)c2OB1O)/C(=N\O)c1csc(NCCc2ccncc2)n1` [Example 123, (R,Z)-2-hydroxy-3-(2-(hydroxyimino)-2-(2-((2-(pyridin-4-yl)ethyl)amino)thiazol-4-yl)acetamido)-3,4-dihydro-2H-benzo[e][1,2]oxaborinine-8-carboxylic Acid], for which the MIC was less than 64 µg/mL in experiment [5] and more than 128 µg/mL in experiment [4].

In the case of `O=C(N[C@H]1Cc2cccc(C(=O)O)c2OB1O)/C(=N\O)c1cscn1` [Example 90, (R,Z)-2-hydroxy-3-(2-(hydroxyimino)-2-(thiazol-4-yl)acetamido)-3,4-dihydro-2H-benzo[e][1,2]oxaborinine-8-carboxylic Acid], the MIC in experiment [5] is less than 64 µg/mL; in experiment [4], 64 to 128 µg/mL.

With `O=C(N[C@H]1Cc2cccc(C(=O)O)c2OB1O)C(=NO)c1csc(-n2ccnc2)n1` [Example 93, (R)-3-(2-(2-(1H-imidazol-1-yl)thiazol-4-yl)-2-(hydroxyimino)acetamido)-2-hydroxy-3,4-dihydro-2H-benzo[e][1,2]oxaborinine-8-carboxylic Acid], the MIC in experiment [5] is less than 64 µg/mL; in experiment [4] it was more than 128 µg/mL.

For `Nc1nc(/C(=N/OCC(=O)O)C(=O)N[C@H]2Cc3cccc(C(=O)O)c3OB2O)cs1` [Example 18, (R,Z)-3-(2-(2-aminothiazol-4-yl)-2-((carboxymethoxy)imino)acetamido)-2-hydroxy-3,4-dihydro-2H-benzo[e][1,2]oxaborinine-8-carboxylic Acid], the MIC in experiment [5] was more than 128 µg/mL; in experiment [4], less than 64 µg/mL.

Regarding `Nc1nc(C(=CCCC(=O)O)C(=O)N[C@H]2Cc3cccc(C(=O)O)c3OB2O)cs1` [Example 84, (R)-3-(2-(2-aminothiazol-4-yl)-5-carboxypent-2-enamido)-2-hydroxy-3,4-dihydro-2H-benzo[e][1,2]oxaborinine-8-carboxylic Acid], the values for the MIC in experiment [5] and in experiment [4] were more than 128 µg/mL and less than 64 µg/mL, respectively.

Regarding `O=C(N[C@H]1Cc2cccc(C(=O)O)c2OB1O)/C(Cn1cncn1)=N\O` [Example 126, (R,Z)-2-hydroxy-3-(2-(hydroxyimino)-3-(1H-1,2,4-triazol-1-yl)propanamido)-3,4-dihydro-2H-benzo[e][1,2]oxaborinine-8-carboxylic Acid], the MIC in experiment [5] and in experiment [4] was more than 128 µg/mL throughout.

Consider `CC(C)(O/N=C(\C(=O)N[C@H]1Cc2cc(O)cc(C(=O)O)c2OB1O)c1csc(N)n1)C(=O)O` [Example 80, (R,Z)-3-(2-(2-aminothiazol-4-yl)-2-(((2-carboxypropan-2-yl)oxy)imino)acetamido)-2,6-dihydroxy-3,4-dihydro-2H-benzo[e][1,2]oxaborinine-8-carboxylic Acid], for which the figures for the MIC in experiment [5] and in experiment [4] were more than 128 µg/mL and less than 64 µg/mL, respectively.

Turning to `Nc1ncc(C(=NO)C(=O)N[C@H]2Cc3cccc(C(=O)O)c3OB2O)s1` (stereo in doubt) [Example 96, (R,E)-3-(2-(2-aminothiazol-5-yl)-2-(hydroxyimino)acetamido)-2-hydroxy-3,4-dihydro-2H-benzo[e][1,2]oxaborinine-8-carboxylic Acid], the MIC was 64 to 128 µg/mL in experiment [5] and more than 128 µg/mL in experiment [4].

For the molecule `O=C(O)CNc1nc(/C(=N/O)C(=O)N[C@H]2Cc3cccc(C(=O)O)c3OB2O)cs1` [Example 108, (R,Z)-3-(2-(2-((carboxymethyl)amino)thiazol-4-yl)-2-(hydroxyimino)acetamido)-2-hydroxy-3,4-dihydro-2H-benzo[e][1,2]oxaborinine-8-carboxylic Acid], the MIC in experiment [5] and in experiment [4] was more than 128 µg/mL each time.
